Measured values taken from patent publication EP0452101B1, “Spiro bridged and unbridged heterocyclic compounds” (ISRAEL INSTITUTE FOR BIOLOGICAL RESEARCH, priority 1990, dated 1991).

Columns and labels:
[1] = tested on: rat cerebral cortex synaptosomes; assay: Synaptosomal 3H-ACh release, basal and K+-evoked
Description: The effects of AF150 (and for comparison purposes, AF125, MeN-A-343 and oxotremorine) on basal- and K^+-evoked release of ^3H-ACh were studied on synaptosomes prepared from rat cerebral cortex using the methods described in detail by Pittel et al (J. Neurochem., 55: 665-672, 1990). […] On the other hand, the action of AF150 on presynaptic muscarinic receptors, causing an increase in K^+-evoked ACh release, can be considered either as an M2 antagonistic or an M1 agonistic effect. […] The existence of muscarinic autoreceptors that increase ACh release was manifested also in the PNS in smooth muscle preparation (Kilbinger and Nafziger, Naunyn Schmiedebergs Arch. Pharmacol. 328: 304-309, 1985).

AF64A-treated rats = assay: 8-arm radial maze (RAM) with delay procedure in AF64A-treated rats, Part B; assay type: in vivo
Experimental: This animal model mimics the cholinergic hypofunction and cognitive dysfunction in SDAT (Fisher and Hanin, loc cit; Fisher et al, Neurosci. Lett. 102: 325-331, 1989); the method described in the latter publication was used here.
In brief, saline- and A64A-pretreated rats (3 nmole/2 µl./side, icv) were used in these experiments, 2.5 months after the lesion. The experiment was carried out over a three-week period. During the first week the rats were trained to find food pellets in all eight arms of the maze. After learning the task, the rats were trained using the delay procedure. During a predelay session, four of the arms of the maze were closed and the rats collected the food pellets from the remaining four opened arms. During this period working memory errors were recorded. Following a two hour delay, the rats were returned to the maze. All of the arms of the maze were now open but only four of them, those which were closed during the pre-delay session, were baited. The rats had to collect the food pellets without entering any previously visited arms, whether during the predelay or the post-delay session. After reaching a baseline level the rats were tested for their performance during the third week of the experiment in which either 10mM phosphate buffer (pH 7.3), or AF150 (0.07 or 1.0 mg./kg. free base dissolved in 10 mM phosphate buffer, pH 7.3), were administered i.p., immediately after the pre-delay session, once a day for five days.

M1 muscarinic receptor = target: T1, M1 muscarinic receptor (Rattus norvegicus, UniProt P08482); assay: Potentiation of AC activity (basal and forskolin-stimulated cAMP) via m1 receptors; assay type: cell-based; design: expressed in transfected cells; host or cells: CHO cells
T1 sequence (P08482 1-460): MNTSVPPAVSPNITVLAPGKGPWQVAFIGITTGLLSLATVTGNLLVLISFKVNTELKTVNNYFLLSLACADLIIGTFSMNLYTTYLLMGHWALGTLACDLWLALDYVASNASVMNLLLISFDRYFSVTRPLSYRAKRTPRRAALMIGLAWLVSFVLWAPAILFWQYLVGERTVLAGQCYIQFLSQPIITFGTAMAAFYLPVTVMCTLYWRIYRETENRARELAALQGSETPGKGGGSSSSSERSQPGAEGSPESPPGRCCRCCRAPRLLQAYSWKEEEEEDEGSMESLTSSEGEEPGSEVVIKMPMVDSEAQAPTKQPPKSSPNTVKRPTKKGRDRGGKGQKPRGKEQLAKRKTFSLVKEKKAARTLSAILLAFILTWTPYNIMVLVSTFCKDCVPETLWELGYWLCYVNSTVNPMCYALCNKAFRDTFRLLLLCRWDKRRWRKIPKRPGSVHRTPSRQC
Description: Stimulation of m1 and m3 receptors elicit dose-dependent increases in the hydrolysis of phosphoinositides (PI). Agonist activation of the m1 receptor also elicits increases in basal and forskolin-stimulated cAMP, whereas the m3 receptor has no effect on intracellular cAMP levels (Buck and Fraser, Biochem. Biophys. Res. Comm. 173: 662-672, 1990). Stimulation of the m2 and m4 receptors by muscarinic agonists leads to preferential inhibition of adenylate cyclase (AC) activity (Mei et al, Life Sciences, 45: 1831-1851, 1989).

m3 receptors = m3 receptors (Rattus norvegicus, UniProt P08483); assay: PI hydrolysis in CHO cells transfected with m3 receptors; assay type: cell-based; details: for effective concentration which induces the effect: CHO m3, PI hydrolysis, footnote b; for PI (phosphoinositides hydrolysis): CHO m3, tested at 1mM
Sequence of m3 receptors (P08483 whole entry): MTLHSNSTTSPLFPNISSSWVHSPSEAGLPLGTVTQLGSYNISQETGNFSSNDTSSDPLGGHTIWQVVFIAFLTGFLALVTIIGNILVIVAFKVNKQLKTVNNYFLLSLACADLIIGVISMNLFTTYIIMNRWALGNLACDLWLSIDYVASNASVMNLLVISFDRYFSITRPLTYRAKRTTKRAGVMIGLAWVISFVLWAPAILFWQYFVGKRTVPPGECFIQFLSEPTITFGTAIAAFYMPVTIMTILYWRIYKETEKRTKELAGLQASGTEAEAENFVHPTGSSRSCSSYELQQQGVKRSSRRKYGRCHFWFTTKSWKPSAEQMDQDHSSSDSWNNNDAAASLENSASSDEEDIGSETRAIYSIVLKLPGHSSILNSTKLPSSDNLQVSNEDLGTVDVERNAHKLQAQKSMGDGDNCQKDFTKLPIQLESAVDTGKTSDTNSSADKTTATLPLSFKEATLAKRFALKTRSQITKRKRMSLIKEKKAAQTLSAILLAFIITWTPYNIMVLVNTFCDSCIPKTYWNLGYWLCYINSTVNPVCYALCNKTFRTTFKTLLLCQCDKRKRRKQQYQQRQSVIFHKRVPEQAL
Experimental: (§1) The new compounds AF150, AF151, AF150(S) and AF125 were assayed for their ability to stimulate PI in CHO cells transfected with m1 and m3 receptors, respectively (Buck and Fraser, loc cit), and in cultured human neuroblastoma cells, line SK-N-SH, which express mainly the m3 subtype, but not the m1 subtype (Pinkas-Kramarski et al, Neurosci. Lett. 188: 335-340, 1990; Luthin et al Mol. Pharmacol. 34: 327-333, 1988). These compounds were also assayed on cultured PC12 cells which express mainly m4 subtype receptors and are coupled to inhibition of AC activity (Pinkas-Kramarski et al, loc cit).
(§2) Stimulation of PI breakdown was assayed using the method described by Stein et al (EMBO J. 7: 3031-3035, 1988), and modulation of AC activity was assayed by the method of Stein et al, loc cit and Pinkas-Kramarski et al (FEBS Lett., 239: 174-178, 1988). […]

[2] = target: T2, m4 subtype receptors (PC12 cells) (Rattus norvegicus, UniProt P08485); assay: Inhibition of adenylate cyclase activity in PC12 cells; assay type: cell-based; details: for EC50: PC12 m4, AC activity; for AC (adenylate cyclase activity): PC12 m4, tested at 1mM
T2 construct: endogenous in cells; host or cells: PC12 cells
T2 sequence (P08485 1-478): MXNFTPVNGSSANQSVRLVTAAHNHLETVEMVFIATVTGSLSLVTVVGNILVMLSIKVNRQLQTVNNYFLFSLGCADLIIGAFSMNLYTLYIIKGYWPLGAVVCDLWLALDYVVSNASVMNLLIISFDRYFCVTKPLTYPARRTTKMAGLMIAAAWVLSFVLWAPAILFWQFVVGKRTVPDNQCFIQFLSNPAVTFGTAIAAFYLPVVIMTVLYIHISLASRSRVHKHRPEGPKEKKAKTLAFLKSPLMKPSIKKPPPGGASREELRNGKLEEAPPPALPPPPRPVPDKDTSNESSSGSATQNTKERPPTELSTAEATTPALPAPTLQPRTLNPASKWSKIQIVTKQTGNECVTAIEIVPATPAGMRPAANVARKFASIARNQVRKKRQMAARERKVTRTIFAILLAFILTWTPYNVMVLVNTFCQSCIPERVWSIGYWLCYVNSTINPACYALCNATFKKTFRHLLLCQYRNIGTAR
Experimental: as §1, §2

## CC1=NCC2(CN3CCC2CC3)O1 (racemic) [AF125, 2-Methyl-spiro(1,3 oxazoline-5,3')quinuclidine]
[1]; 1.0 mM
  K+-evoked 3H-ACh release: 78±9 (2) %

## CC1=NCC2(CCN(C)CC2)O1 [AF150, 2-Methyl-spiro(1,3-oxazoline-5,4')-1'-methylpiperidine]
[1]; 0.1 mM
  Basal 3H-ACh release: 121%
  K+-evoked 3H-ACh release: 110%
[1]; 1.0 mM
  K+-evoked 3H-ACh release: 115±4 (6) p<0.01%
AF64A-treated rats; AF150 0.07 mg./kg., i.p. group, AF64A rats, week (pre)II, before treatment
  Working memory errors (session I): 3.33±1.18
AF64A-treated rats; AF150 0.07 mg./kg., i.p. group, Sal. rats, week (pre)II, before treatment
  Working memory errors (session I): 0.33±0.12
AF64A-treated rats; AF150 0.07 mg./kg., i.p., AF64A rats, week III
  Working memory errors (session I): 3.75±1.04
AF64A-treated rats; AF150 0.07 mg./kg., i.p., Sal. rats, week III
  Working memory errors (session I): 0.18±0.07
AF64A-treated rats; AF150 1.0 mg./kg., i.p. group, AF64A rats, week (pre)II, before treatment
  Working memory errors (session I): 3.00±0.94
AF64A-treated rats; AF150 1.0 mg./kg., i.p. group, Sal. rats, week (pre)II, before treatment
  Working memory errors (session I): 0.11±0.05
AF64A-treated rats; AF150 1.0 mg./kg., i.p., AF64A rats, week III
  Working memory errors (session I): 4.22±1.76
AF64A-treated rats; AF150 1.0 mg./kg., i.p., Sal. rats, week III
  Working memory errors (session I): 0.13±0.07
M1 muscarinic receptor
  increase in basal cAMP: 33%
  increase in forskolin-stimulated cAMP: 76%
m3 receptors
  effective concentration which induces the effect: 10^b µM
  PI (phosphoinositides hydrolysis): +
[2]
  EC50: 1 µM
  AC (adenylate cyclase activity): +++

## CC1=NC2(CCN(C)CC2)CO1 [AF151, 1-methylpiperidine-4-spiro-4'-(2'-methyl-1',3'-oxazoline)]
M1 muscarinic receptor
  increase in basal cAMP: 33%
  increase in forskolin-stimulated cAMP: 76%
m3 receptors
  effective concentration which induces the effect: 10^b µM
  PI (phosphoinositides hydrolysis): +
[2]
  EC50: 1 µM
  AC (adenylate cyclase activity): +++
